Experimental data taken from patent publication US20130052204A1, “(POLY)-GLYCEROLPHOSPHATE-BASED ANTI-GRAM POSITIVE BACTERIAL VACCINE” (priority 2009, published 2013).
Entries after “also recorded” stand apart in the source; their conditions may differ.

Legend:
Assay type in all cases: binding
Pagibaximab (anti-LTA) = assay: ELISA: biotinylated LTA or PGP added to Pagibaximab-coated plates; settings: for O.D. readings: Pagibaximab-coated wells
Description: (§1) ELISA plates (96-well) were coated overnight with […] of Pagibaximab (anti-LTA), Zantibody (anti-peptidoglycan), or Synagis (anti-RSV), all of which are chimeric IgG1 antibodies. PGP was prepared as described above in Example 1, and LTA was extracted from S. aureus. The plates were then developed with horseradish peroxidase for 30 minutes.

[1] = test system: Zantibody (anti-peptidoglycan); assay: ELISA: biotinylated LTA or PGP added to Zantibody-coated plates; settings: anti-peptidoglycan-coated wells
Description: as §1

Synagis (anti-RSV) = assay: ELISA: biotinylated LTA or PGP added to Synagis-coated plates; settings: Synagis-coated wells
Description: as §1

[2] = biotinylated LTA or PGP at 0.004 μg/ml
[3] = biotinylated LTA or PGP at 0.012 μg/ml
[4] = biotinylated LTA or PGP at 0.037 μg/ml
[5] = biotinylated LTA or PGP at 0.1 μg/ml
[6] = biotinylated LTA or PGP at 0.33 μg/ml
[7] = biotinylated LTA or PGP at 1 μg/ml
[8] = biotinylated LTA or PGP at 3 μg/ml

poly-glycerolphosphate [PGP] gave an O.D. readings (Pagibaximab (anti-LTA); [2]) of 0.34, an O.D. readings (Pagibaximab (anti-LTA); [3]) of 0.51 and an O.D. readings (Pagibaximab (anti-LTA); [4]) of 0.67. It also gave an O.D. readings (Pagibaximab (anti-LTA); [5]) of 0.89, an O.D. readings (Pagibaximab (anti-LTA); [6]) of 1.09 and an O.D. readings (Pagibaximab (anti-LTA); [7]) of 1.42. The O.D. readings (Pagibaximab (anti-LTA); biotinylated LTA or PGP at 3 μg/ml, one hour) was 1.91, the “recognition / binding by Pagibaximab (in words)” value (Pagibaximab (anti-LTA); compared with LTA from S. aureus) was “recognized; also recorded: binds equally well” and the O.D. readings [1, 2] was under 0.02. For the same substance, the O.D. readings [1, 3] was under 0.02, the O.D. readings [1, 4] was under 0.02 and the O.D. readings [1, 5] was under 0.02. For the same substance, the O.D. readings [1, 6] was under 0.02, the O.D. readings [1, 7] was under 0.02 and the O.D. readings [1, 8] was 0.03. It also gave an O.D. readings (Synagis (anti-RSV); [2]) of under 0.02, an O.D. readings (Synagis (anti-RSV); [3]) of under 0.02 and an O.D. readings (Synagis (anti-RSV); [4]) of under 0.02. For the same substance, the O.D. readings (Synagis (anti-RSV); [5]) was under 0.02, the O.D. readings (Synagis (anti-RSV); [6]) was under 0.02 and the O.D. readings (Synagis (anti-RSV); [7]) was under 0.02. For the same substance, the O.D. readings (Synagis (anti-RSV); [8]) was under 0.02.
